Experiment in all cases: Test C pre-/postemergence herbicide test
Assay [1] deals with yellow nutsedge. It counts as in vivo, Cyperus esculentus. To be noted: for Plant response rating, Nutsedge, Yellow / Plant response rating (0 = no effect, 100 = complete control), Nutsedge, Yellow: preemergence; for Nutsedge, Yellow plant response rating: Preemergence, scale 0 to 100, 0 no effect, 100 complete control. The essentials:
(§1)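 Visual ratings on a 0–100 scale (100 = complete control) made versus untreated controls after 12 to 14 greenhouse days. Test chemicals, formulated in surfactant-containing non-phytotoxic solvent, applied preemergence to planted seeds or postemergence to 1- to 4-leaf plants (2 to 18 cm).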

Assay [2] concerns pigweed. Format: in vivo, Amaranthus retroflexus. Particulars: for Plant response rating, Pigweed / Plant response rating (0 = no effect, 100 = complete control), Pigweed: preemergence; for Pigweed plant response rating: Preemergence, scale 0 to 100, 0 no effect, 100 complete control. The essentials:
as §1

Assay [3] has as its system eastern black nightshade. Format: in vivo, Solanum ptycanthum. To be noted: for Plant response rating, Nightshade / Plant response rating (0 = no effect, 100 = complete control), Nightshade: preemergence; for Nightshade plant response rating: Preemergence, scale 0 to 100, 0 no effect, 100 complete control. The essentials:
as §1

[4] abbreviates: 125 g ai/ha, scale 0 (no effect) to 100 (complete control), visual, 12 to 14 days.
Setting [5] is: 500 g ai/ha, scale 0 to 100 (0 no effect, 100 complete control), visual, 12 to 14 days.

For the compound `CCNC(=O)c1ccnc(NC(=O)c2cc(C(C)(C)C)nn2CC)c1` [Compound 152], the “Plant response rating, Nutsedge, Yellow” value worked out at 10 in assay [1] (62 g ai/ha, scale 0 to 100) and 30 in assay [1] (setting [4]). Also, the “Nutsedge, Yellow plant response rating” value in assay [1] (500 g ai/ha) was 70. The “Plant response rating, Pigweed” value in assay [2] (62 g ai/ha, scale 0 to 100) is on record as 85; in assay [2] (setting [4]), 100. Further, the “Pigweed plant response rating” value in assay [2] (500 g ai/ha) worked out at 100. Moreover, the “Plant response rating, Nightshade” value in assay [3] (62 g ai/ha, scale 0 to 100) is 80; in assay [3] (setting [4]), 90. The “Nightshade plant response rating” value in assay [3] (500 g ai/ha) is recorded as 100.
Take `CCN(CC)C(=O)c1cccc(NC(=O)c2nn(C(C)(C)C)nc2C)c1` [Compound 418]: the “Plant response rating, Nutsedge, Yellow” value was 0 in assay [1] (62 g ai/ha, scale 0 to 100) and 0 in assay [1] (setting [5]). Further, in assay [1] (125 g ai/ha), the “Plant response rating (0 = no effect, 100 = complete control), Nutsedge, Yellow” value is recorded as 0. The “Plant response rating, Pigweed” value in assay [2] (62 g ai/ha, scale 0 to 100) worked out at 100; in assay [2] (setting [5]), 100. The “Plant response rating (0 = no effect, 100 = complete control), Pigweed” value in assay [2] (125 g ai/ha) is reported as 100. Also, the “Plant response rating, Nightshade” value in assay [3] (62 g ai/ha, scale 0 to 100) is given as 95; in assay [3] (setting [5]), 100. In addition, the “Plant response rating (0 = no effect, 100 = complete control), Nightshade” value in assay [3] (125 g ai/ha) is reported as 95.
Turning to `CCC(=NO)c1cccc(NC(=O)c2cc(C(C)(C)C)nn2C)c1` [Compound 118], the “Plant response rating, Nutsedge, Yellow” value in assay [1] (16 g ai/ha, scale 0 to 100, last section of Table C) is 0; in assay [1] (31 g ai/ha, scale 0 to 100), 0; in assay [1] (setting [4]), 0. In assay [1] (62 g ai/ha), the “Plant response rating (0 = no effect, 100 = complete control), Nutsedge, Yellow” value was determined as 0. The “Plant response rating, Pigweed” value in assay [2] (31 g ai/ha, scale 0 to 100) is 20; in assay [2] (setting [4]), 90. Further, the “Plant response rating (0 = no effect, 100 = complete control), Pigweed” value in assay [2] (62 g ai/ha) is 70. The “Plant response rating, Nightshade” value in assay [3] (31 g ai/ha, scale 0 to 100) is 60; in assay [3] (setting [4]) it was 100. The “Plant response rating (0 = no effect, 100 = complete control), Nightshade” value in assay [3] (62 g ai/ha) amounted to 100.
Turning to `CC(=NO)c1cccc(NC(=O)c2cc(C(C)(C)C)nn2C)c1` [Compound 102], the “Plant response rating (0 = no effect, 100 = complete control), Nutsedge, Yellow” value in assay [1] (62 g ai/ha) came to 0. In addition, the “Plant response rating, Nutsedge, Yellow” value in assay [1] (setting [4]) stood at 0. Besides, the “Nutsedge, Yellow plant response rating” value in assay [1] (500 g ai/ha) worked out at 30. In assay [2] (62 g ai/ha), the “Plant response rating (0 = no effect, 100 = complete control), Pigweed” value is reported as 90. In addition, the “Plant response rating, Pigweed” value in assay [2] (setting [4]) is given as 100. Also, in assay [2] (500 g ai/ha), the “Pigweed plant response rating” value stood at 100. Further, the “Plant response rating (0 = no effect, 100 = complete control), Nightshade” value in assay [3] (62 g ai/ha) amounted to 90. In addition, the “Plant response rating, Nightshade” value in assay [3] (setting [4]) was 100. Besides, in assay [3] (500 g ai/ha), the “Nightshade plant response rating” value is recorded as 100.
For `CCc1nn(C(C)(C)C)cc1C(=O)Nc1cccc(C(C)=NO)c1` [Compound 188], the “Plant response rating, Nutsedge, Yellow” value in assay [1] (62 g ai/ha, scale 0 to 100) is recorded as 0; in assay [1] (setting [4]), 0. The “Nutsedge, Yellow plant response rating” value in assay [1] (500 g ai/ha) came to 0. The “Plant response rating, Pigweed” value in assay [2] (62 g ai/ha, scale 0 to 100) is listed as 95; in assay [2] (setting [4]), 95. For the same compound, the “Pigweed plant response rating” value in assay [2] (500 g ai/ha) came out at 100. Besides, the “Plant response rating, Nightshade” value in assay [3] (62 g ai/ha, scale 0 to 100) came out at 80; in assay [3] (setting [4]) it was 95. The “Nightshade plant response rating” value in assay [3] (500 g ai/ha) is on record as 100.
For the compound `CCn1nc(C(C)(C)C)cc1C(=O)Nc1cncc(C(=O)N(C)C)n1` [Compound 287], the “Plant response rating, Nutsedge, Yellow” value is reported as 0 in assay [1] (62 g ai/ha, scale 0 to 100); 15 in assay [1] (setting [4]); 60 in assay [1] (250 g ai/ha, scale 0-100); 85 in assay [1] (setting [5]). Further, the “Plant response rating, Pigweed” value in assay [2] (62 g ai/ha, scale 0 to 100) is reported as 100; in assay [2] (setting [4]), 100; in assay [2] (250 g ai/ha, scale 0-100), 100; in assay [2] (setting [5]), 100. The “Plant response rating, Nightshade” value in assay [3] (62 g ai/ha, scale 0 to 100) is recorded as 95; in assay [3] (setting [4]), 100; in assay [3] (250 g ai/ha, scale 0-100), 100; in assay [3] (setting [5]), 100.

Source of the values: patent US20060069132A1, “Azolecarboxamide herbicides” (priority 2004, published 2006).
